Where a name gives a salt, the structure may show the parent alone.
Test system: endogenous AR-regulated gene expression, LNCaP cells
Test: qRT-PCR of androgen-responsive genes in LNCaP cells
Type: cell-based, human
Settings: No DHT = 1, 3 nM DHT alone or with 1 uM BIC, 100 nM PP or 100 nM HH
Procedure: LAPC4 and LNCaP cells were grown in the presence or absence of 3 nM DHT in charcoal-stripped media, with or without the inhibitors. RNA was harvested using an RNAeasy kit (Qiagen) and reverse transcribed (MMLV-RT, Invitrogen). Real-time PCR was carried out on a 7300 Real Time PCR System (Applied Biosystems) using SYBR green as the detecting dye and Rox as the reference dye. The androgen responsive genes kalikrein 3, or PSA (KLK3) [Cleutjens, K. B., et al., Two androgen response regions cooperate in steroid hormone regulated activity of the prostate-specific antigen promoter. J Biol Chem, 1996. 271(11): p. 6379-88; Nelson, P. S., et al., The program of androgen-responsive genes in neoplastic prostate epithelium. Proc Natl Acad Sci USA, 2002. 99(18): p. 11890-5), metalloproteinase 16 (MMP16) (Nelson, P. S., et al., The program of androgen-responsive genes in neoplastic prostate epithelium. Proc Natl Acad Sci USA, 2002. 99(18): p. 11890-5), transmembrane protease serine 2 (TMPRSS2) (Nelson, P. S., et al., The program of androgen-responsive genes in neoplastic prostate epithelium. Proc Natl Acad Sci USA, 2002. 99(18): p. 11890-5; […] Vaarala, M. H., et al., Expression of transmembrane serine protease TMPRSS2 in mouse and human tissues. J Pathol, 2001. 193(1): p. 134-40), FK506-binding immunophilin 51 (FKBP51) (Nelson, P. S., et al., The program of androgen-responsive genes in neoplastic prostate epithelium. Proc Natl Acad Sci USA, 2002. 99(18): p. 11890-5; Amler, L. C., et al., Dysregulated expression of androgen-responsive and nonresponsive genes in the androgen-independent prostate cancer xenograft model CWR22-R1. Cancer Res, 2000. 60(21): p. 6134-41; Velasco, A. M., et al., Identification and validation of novel androgen-regulated genes in prostate cancer. Endocrinology, 2004. 145(8): p. 3913-24; Magee, J. A., et al., Direct, androgen receptor-mediated regulation of the FKBP5 gene via a distal enhancer element. Endocrinology, 2006. 147(1): p. 590-8), G-protein coupled receptor RDC1 homolog, or chemokine orphan receptor 1 (RDC-1) (Nelson, P. S., et al., The program of androgen-responsive genes in neoplastic prostate epithelium. Proc Natl Acad Sci USA, 2002. 99(18): p. 11890-5), NK homeobox family member 3 (Nk×3.1) (Nelson, P. S., et al., The program of androgen-responsive genes in neoplastic prostate epithelium. Proc Natl Acad Sci USA, 2002. 99(18): p. 11890-5; Bieberich, C. J., et al., Prostate-specific and androgen-dependent expression of a novel homeobox gene. J Biol Chem, 1996. 271(50): p. 31779-82; […]) were all normalized to the transcription of the housekeeping ribosomal gene (RPL19). All samples were done in triplicate and separately normalized.

SMILES: Cc1nccc2c1[nH]c1cc(O)ccc12 [HH, harmol hydrochloride]
- FKBP51 transcription (normalized to RPL19): 1.90
- KLK3 transcription (normalized to RPL19): 1.46
- MMP16 transcription (normalized to RPL19), androgen-repressed gene: 1.02
- Nkx3.1 transcription (normalized to RPL19): 1.28
- RDC1 transcription (normalized to RPL19), androgen-repressed gene: 1.22
- TMPRSS2 transcription (normalized to RPL19): 1.22
